From patent US20200071326A1, “TAM KINASE INHIBITORS” (Syros Pharmaceuticals, Inc., priority 2017, published 2020)
Structures can show the parent of a compound that is named as a salt.

Experiments:
FLT3 = target: T1, FLT3 (Homo sapiens, UniProt P36888); assay: IMAP fluorescence polarization kinase assay, FLT3; format: biochemical; settings: ATP 2.74 μM, enzyme 2.5 nM, 240 minutes, read-out: FLT3 inhibitory constant (Ki)
T1 sequence (P36888 27-993): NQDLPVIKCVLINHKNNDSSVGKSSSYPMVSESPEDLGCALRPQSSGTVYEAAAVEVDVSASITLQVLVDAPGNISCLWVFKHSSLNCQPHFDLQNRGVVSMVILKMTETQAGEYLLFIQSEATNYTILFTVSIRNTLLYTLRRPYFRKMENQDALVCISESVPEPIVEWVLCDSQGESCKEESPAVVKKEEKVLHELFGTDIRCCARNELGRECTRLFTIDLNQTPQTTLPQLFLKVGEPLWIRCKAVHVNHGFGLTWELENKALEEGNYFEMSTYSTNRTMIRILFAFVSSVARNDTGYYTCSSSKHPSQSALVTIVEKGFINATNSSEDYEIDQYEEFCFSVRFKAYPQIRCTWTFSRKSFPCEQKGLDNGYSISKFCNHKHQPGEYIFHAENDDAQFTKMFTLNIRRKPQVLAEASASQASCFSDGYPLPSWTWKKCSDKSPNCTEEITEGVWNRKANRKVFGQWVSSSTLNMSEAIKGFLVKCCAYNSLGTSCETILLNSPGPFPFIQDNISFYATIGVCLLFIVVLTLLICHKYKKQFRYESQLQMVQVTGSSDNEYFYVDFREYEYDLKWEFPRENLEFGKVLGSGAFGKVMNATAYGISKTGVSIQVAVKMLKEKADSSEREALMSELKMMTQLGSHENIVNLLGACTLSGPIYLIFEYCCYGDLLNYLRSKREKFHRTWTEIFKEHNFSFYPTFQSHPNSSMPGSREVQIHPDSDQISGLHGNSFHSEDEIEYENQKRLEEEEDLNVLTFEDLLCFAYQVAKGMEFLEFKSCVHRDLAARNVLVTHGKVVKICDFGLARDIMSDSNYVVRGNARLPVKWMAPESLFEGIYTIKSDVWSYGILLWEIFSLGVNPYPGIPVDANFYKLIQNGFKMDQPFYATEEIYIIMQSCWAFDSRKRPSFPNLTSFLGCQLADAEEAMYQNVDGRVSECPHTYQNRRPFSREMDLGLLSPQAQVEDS
Procedure: (§1) Activities of compounds against each of TYRO3, AXL, and MERTK as well as against FLT3, were determined using an immobilized metal ion affinity-based fluorescence polarization (“IMAP”) assay. A fluorescently-labeled substrate peptide was phosphorylated in the kinase reaction, after which a binding solution containing large trivalent metal-based nanoparticles was added and the phosphorylated substrate binds to these beads. This reduces the rotational speed of the substrate which is then detected using fluorescence polarization as a read-out.
(§2) The substrates used for each enzyme are as follows: AXL: 5F1-KKKKEEIYFFFG-NH2(SEQ ID NO:1); FLT3: 5F1-KKKKEEIYFFF-NH2 (SEQ ID NO:2); MERTK: 5F1-EFPIYDFLPAKKK-NH2 (SEQ ID NO:3); and TYRO3: 5F1-EFPIYDFLPAKKK-NH2 (SEQ ID NO:4).
(§3) This assay was performed in a 384-well, polystyrene microplate in a final volume of 8 μl. Substrate (final concentration=400 nM), ATP (final concentrations=24.7μM for AXL; 2.74 μM for FLT3; 2.69 μM for MERTK; and 54.0 μM for TYRO3), compounds and enzyme (final concentrations=2.5 nM for AXL, FLT3 and TYRO3; 1.5 nM for MERTK) were pipetted in this order into the appropriate reaction buffer (AXL: 50 mM HEPES, pH 8.0, 1 mM DTT, 10 mM MgCl2, 0.01% BRU35, 0.01% Triton X-100; FLT3: 50 mM HEPES, pH 8.0, 1 mM DTT, 10 mM MgCl2, 0.01% Triton X-100, 0.01% NP40; MERTK/TYRO3: 50 mM HEPES, pH 8.0, 1 mM DTT, 10 mM MgCl2, 0.01% Triton X-100) and incubated at room temperature for varying times (AXL, FLT3 and MERTK: 240 minutes; TYRO3: 60 minutes). IMAP binding solution was then dispensed, the plate incubated for 60 minutes at room temperature and the fluorescence polarization measured. Data were analyzed using XLfit.

AXL = target: T2, AXL (Homo sapiens, UniProt P30530); assay: IMAP fluorescence polarization kinase assay, AXL; format: biochemical; settings: ATP 24.7 μM, enzyme 2.5 nM, 240 minutes, read-out: AXL inhibitory constant (Ki)
T2 sequence (P30530 26-894): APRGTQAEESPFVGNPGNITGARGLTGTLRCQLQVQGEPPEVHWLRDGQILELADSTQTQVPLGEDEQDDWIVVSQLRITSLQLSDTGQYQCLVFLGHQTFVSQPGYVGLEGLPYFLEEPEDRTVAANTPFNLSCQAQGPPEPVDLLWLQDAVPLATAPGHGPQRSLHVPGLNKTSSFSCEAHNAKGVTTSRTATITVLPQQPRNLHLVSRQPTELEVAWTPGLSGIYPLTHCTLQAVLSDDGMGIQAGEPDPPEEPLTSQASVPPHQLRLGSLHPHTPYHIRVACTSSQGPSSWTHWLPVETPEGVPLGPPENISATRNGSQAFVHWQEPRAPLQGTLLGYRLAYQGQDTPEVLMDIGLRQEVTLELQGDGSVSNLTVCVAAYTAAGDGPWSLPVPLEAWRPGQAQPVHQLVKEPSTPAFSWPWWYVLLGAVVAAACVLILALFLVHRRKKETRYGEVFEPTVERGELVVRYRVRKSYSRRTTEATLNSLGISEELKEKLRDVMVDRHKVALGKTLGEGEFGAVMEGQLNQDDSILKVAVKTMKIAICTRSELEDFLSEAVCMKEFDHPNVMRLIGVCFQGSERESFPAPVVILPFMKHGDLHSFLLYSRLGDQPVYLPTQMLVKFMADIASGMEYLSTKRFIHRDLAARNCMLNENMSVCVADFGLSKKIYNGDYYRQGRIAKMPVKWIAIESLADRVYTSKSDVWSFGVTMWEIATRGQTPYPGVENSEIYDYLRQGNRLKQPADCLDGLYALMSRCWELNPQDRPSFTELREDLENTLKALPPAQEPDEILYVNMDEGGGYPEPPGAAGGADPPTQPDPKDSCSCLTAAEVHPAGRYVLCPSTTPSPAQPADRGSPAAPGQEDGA
Procedure: as §1, §2, §3

SMILES | Ki (FLT3) [nM] | Ki (AXL) [nM]
CCC(C)c1cc2c(N[C@H]3CC[C@H](N)CC3)c(C(=O)Nc3ccc(F)cc3)cnc2[nH]1 (some centres unmarked) [Compound 134] | 100 to 1000 | 1000 to 10000
N[C@H]1CC[C@H](Nc2c(C(=O)Nc3ccc(F)cc3)cnc3[nH]c(C(F)(F)F)cc23)CC1 [Compound 135, 4-(((1r,4r)-4-aminocyclohexyl)amino)-N-(4-fluorophenyl)-2-(trifluoromethyl)-1H-pyrrolo[2,3-b]pyridine-5-carboxamide hydrochloride] | 100 to 1000 | 100 to 1000
CCCC(O)c1cc2c(N[C@H]3CC[C@H](N)CC3)c(Br)cnc2[nH]1 (some centres unmarked) [Compound 137] | 1000 to 10000 | 1000 to 10000
CCCc1cc2c(N[C@H]3CC[C@H](N)CC3)c(C(=O)NC3CCN(c4ncccn4)CC3)cnc2[nH]1 [Compound 141] | 100 to 1000 | 100 to 1000
CCCc1cc2c(N[C@H]3CC[C@H](N)CC3)c(Br)cnc2[nH]1 [Compound 142] | 100 to 1000 | 100 to 1000
COC(C)c1cc2c(N[C@H]3CC[C@H](N)CC3)c(C(=O)Nc3ccc(F)cc3)cnc2[nH]1 (some centres unmarked) [Compound 145] | 1000 to 10000 | > 10000
CCC(OC)c1cc2c(N[C@H]3CC[C@H](N)CC3)c(C(=O)Nc3ccc(F)cc3)cnc2[nH]1 (some centres unmarked) [Compound 146] | 1000 to 10000 | > 10000
CCC(CC)c1cc2c(N[C@H]3CC[C@H](N)CC3)c(C(=O)Nc3ccc(F)cc3)cnc2[nH]1 [Compound 147] | 1000 to 10000 | 1000 to 10000
CC(O)c1cc2c(N[C@H]3CC[C@H](N)CC3)c(C(=O)Nc3ccc(F)cc3)cnc2[nH]1 (some centres unmarked) [Compound 148] | 100 to 1000 | > 10000
CCC[C@H](C)c1cc2c(N[C@H]3CC[C@H](N)CC3)c(C(=O)Nc3ccc(F)cc3)cnc2[nH]1 [Compound 149] | 1000 to 10000 | 1000 to 10000

Continued, values first:

Ki (FLT3) [nM] | Ki (AXL) [nM] | SMILES
< 100 | 1000 to 10000 | C#Cc1cc2c(N[C@H]3CC[C@H](N)CC3)c(C(=O)Nc3ccc(F)cc3)cnc2[nH]1 [Compound 128, [4-1(4-aminocyclohexyl)amino]-2-ethynyl-N-(4-fluorophenyl)-1H-pyrrolo[2,3-b]pyridine-5-carboxamide]
< 100 | 100 to 1000 | CC(C)c1cc2c(N[C@H]3CC[C@H](N)CC3)c(C(=O)NCc3ccc(-n4ccnc4)cc3)cnc2[nH]1 [Compound 129]
< 100 | 1000 to 10000 | CCCc1cc2c(N[C@H]3CC[C@H](N)CC3)c(-c3ccc(COC(C)C)cn3)cnc2[nH]1 [Compound 130]
< 100 | 1000 to 10000 | CCCc1cc2c(N[C@H]3CC[C@H](N)CC3)c(-c3cc(N)ccn3)cnc2[nH]1 [Compound 131]
< 100 | 100 to 1000 | CCc1cc2c(N[C@H]3CC[C@H](N)CC3)c(C(=O)NC3CCN(c4ncccn4)CC3)cnc2[nH]1 [Compound 132]
100 to 1000 | 100 to 1000 | CCCCCc1cc2c(N[C@H]3CC[C@H](N)CC3)c(C(=O)NCc3ccc(-n4ccnc4)cc3)cnc2[nH]1 [Compound 133]
< 100 | 100 to 1000 | CCc1cc2c(N[C@H]3CC[C@H](N)CC3)c(C(=O)Nc3ccc(F)cc3)cnc2[nH]1 [Compound 136]
< 100 | 1000 to 10000 | N[C@H]1CC[C@H](Nc2c(C(=O)Nc3ccc(F)cc3)cnc3[nH]c(C4CCC4)cc23)CC1 [Compound 138, 4-(((1r,4r)-4-aminocyclohexyl)amino)-2-cyclobutyl-N-(4-fluorophenyl)-1H-pyrrolo[2,3-b]pyridine-5-carboxamide hydrochloride]
< 100 | 100 to 1000 | CCCc1cc2c(N[C@H]3CC[C@H](N)CC3)c(C(=O)NC)cnc2[nH]1 [Compound 139]
< 100 | 1000 to 10000 | CCCc1cc2c(N[C@H]3CC[C@H](N)CC3)c(C(=O)OC)cnc2[nH]1 [Compound 140]
< 100 | 1000 to 10000 | CC(O)c1cc2c(N[C@H]3CC[C@H](O)CC3)c(-c3ccc(CN4CCOCC4)cn3)cnc2[nH]1 (some centres unmarked) [Compound 143]
< 100 | 100 to 1000 | CCc1cc2c(N[C@H]3CC[C@H](O)CC3)c(-c3ccc(CN4CCOCC4)cn3)cnc2[nH]1 [Compound 144]
